Several values for one entry are separate records, joined by “and”; a condition that tells them apart may be missing. Identical values can stand only once. Counter-ions that a name gives are not always drawn. Like-named read-outs stand apart in the source and are kept apart here.
Key:
[1] = tested on: melanoma cell line B16/F10; assay: Drug sensitivity in an in vitro tumor model; assay type: cell-based; conditions: vs cisplatin and 5-FU, even at 0.1 μg/mL
Excerpt: The B16/F10 cells were cultivated in the presence of different concentrations of DOX, cisplatin and 5-FU.

[2] = tested on: melanoma cell line B16/F10 tumors

## COc1cccc2c1C(=O)c1c(O)c3c(c(O)c1C2=O)C[C@@](O)(C(=O)CO)C[C@@H]3O[C@H]1C[C@H](N)[C@H](O)[C@H](C)O1 [DOX, doxorubicin]
[1]
  inhibitory effect on the cell culture: strongest inhibitory effect

## COc1cccc2c1C(=O)c1c(O)c3c(c(O)c1C2=O)C[C@@](O)(C(=O)CO)C[C@@H]3O[C@H]1C[C@H](N)[C@H](O)[C@H](C)O1 [Bolus Dox, doxorubicin hydrochloride]
[2]; mouse, in vivo
  Number of Mice Survived, 28 days: 8
  early death after injection: did not produce early death
[2]; mouse, in vivo, hydrochloride
  Number of Mice Survived, 42 days: 5 and 3
[2]; treatment injected Day 3 (3d)
  Tumor Volume After Tumor Injection, 28 days: 1218.9 ± 304.1 mm^3
  Tumor Volume After Tumor Injection, 42 days: 3942.5 ± 1818 mm^3
[2]; treatment injected Day 7 (7d)
  Tumor Volume After Tumor Injection, 28 days: 1661.2 ± 301.8 mm^3
  Tumor Volume After Tumor Injection, 42 days: 4394.3 ± 741.3 mm^3

Source: patent US6800672B2, “Biodegradable compositions comprising poly(cycloaliphatic phosphoester) compounds, articles, and methods for using the same” (Guilford Pharmaceuticals, Inc., priority 1997, dated 2004)
